Data as given in patent publication US20190269705A1, “METHODS AND MATERIALS FOR TREATING GRAFT VERSUS HOST DISEASE” (Regents of the University of Minnesota, priority 2017, published 2019).
Entries after “also recorded” stand apart in the source; their conditions may differ.

Key:
[1] = system: hgp100-expressing vaccinia virus; conditions: mouse, in vivo
[2] = mouse, in vivo
Th17 cells [3] = experiment: 3H-2-deoxyglucose uptake and ECAR, Th17; format: cell-based, mouse
Procedure: Glucose uptake assays were performed as described elsewhere (see, e.g., Macintyre et al., 2014 Cell Metab. 20(1):61-72). Naïve CD4+ T cells were differentiated into Th1 and Th17 cells, in triplicate, in the presence or absence of CB839 over 5 days and spun down after reisolation using CD4 kit as previously described. Cells were washed 2× in PBS, counted, then rested in 1 mL Kreb's Ringers HEPES (KRH) for 10 minutes. Cells were spun and resuspended to 5×10^5 cells/50 uL KRH for glucose uptake assay. Briefly, cells were […]. Cells incubated for 10 minutes at 37° C. Immediately after incubation, reaction was quenched with 200 μM phloretin (Calbiochem, Cat #: 524488). Cells were spun, washed, and then resuspended in scint fluid for counting on Beckman-Coulter scintillation counter. Pathway analysis of altered metabolites was performed using Metaboanalyst 3.0 (metaboanalyst. ca/faces/home.xhtml).
(§1) Experiments were carried out on Agilent Seahorse XF96 bioanalyzer (Agilent). Briefly, wild type CD4+ cells were isolated as previous and activated for 3 days on CD3/CD28 as previously described, or skewed to Th1 and Th17 subsets as described above. T cells were spun onto XF96 Cell-Tak (BD Bioscience, Cat #: 354240) coated plates and rested in Seahorse XF RPMI 1640 media supplemented with glutamine, sodium pyruvate, and glucose. For immediate metabolic response, CB839 and UK5099 were injected separately or in combination, and OCR and ECAR measured.
Glucose uptake assays were performed as previously described (Macintyre et al.,2014). Naïve CD4+ T cells were differentiated into Th1 and Th17 cells, in triplicate, in the presence or absence of CB839 over five days and spun down after reisolation using CD4 kit as previously described. At day 3 and 5, cells were removed, washed twice in PBS, counted, then rested in 1 mL Kreb's Ringers HEPES (KRH) for at least 10 minutes. Cells were spun and resuspended to 5×10^5 cells/50 μL KRH for glucose uptake assay. Briefly, 3H-2-deoxyglucose was suspended in KRH bubble layered in oil, and cells were added to this bubble. Cells were incubated for 10 minutes at 37° C. Immediately after incubation, reaction was quenched with 200 μM phloretin (Calbiochem, Cat #: 524488). Cells were spun, washed, and then resuspended in scintilation fluid for counting on Beckman-Coulter scintillation counter (3H, 1 min/sample read).
(§2) Experiments were carried out on Agilent Seahorse XF96 bioanalyzer (Agilent). Briefly, wild type CD4+ cells were isolated as previous and activated for 3 days on αCD3/CD28 coated plates as previously described, or skewed to Th1 and Th17 subsets as described above. T cells were isolated and spun onto XF96 Cell-Tak (BD Bioscience, Cat #: 354240) coated plates and rested in Seahorse XF RPMI 1640 media supplemented with glutamine, sodium pyruvate, and glucose. For immediate metabolic response, 1 μM CB839 and 5 μM UK5099 (Cat #: PZ0160-5MG) were injected separately or in combination, and OCR and ECAR measured. For activation response, 1 uM CB839 was injected into IL-7 maintained naïve CD4+ T cells in seahorse medium and allowed to incubate for 20 minutes, followed by soluble αCD3/CD28 injection.

stimulated T cells = experiment: Oxygen Consumption Rate (Seahorse) of stimulated CD4 T cells; format: cell-based, mouse; conditions: CD4 cells stimulated on CD3/CD28; 1 μM CB839, 5 μM UK5099 injected separately or in combination
Procedure: as §1, §2

Th17 cells [4] = experiment: Nutrient uptake and secretion by NMR; format: cell-based, mouse
Th17 cells [5] = experiment: CD4 T cells in Th17 skewing conditions, flow cytometry
Th1 cells = experiment: CD4 T cells in Th1 skewing conditions, flow cytometry
[6] = Th17, day 5, listed as GLS inhibitor

SMILES: O=C(Cc1cccc(OC(F)(F)F)c1)Nc1ccc(CCCCc2nnc(NC(=O)Cc3ccccn3)s2)nn1 [CB839]
- time increased cell numbers persisted [1]: greater than 5 weeks
- accumulation / persistence of transferred CD8 T cells [2]: accumulated to greater numbers in vivo by day 7; also recorded: enhances T cell persistence
- glucose uptake (Th17 cells [3]; Th17, day 5): decreased
- media acidification (ECAR, glycolytic flux) (Th17 cells [3]; Th17, day 5): decreased
- glucose uptake (Th17 cells [3]; [6]): remained impaired
- media acidification (ECAR, glycolytic flux) (Th17 cells [3]; [6]): remained impaired
- glucose uptake (Th17 cells [3]; Th17, day three): reduced
- oxygen consumption (T cell respiration) (stimulated T cells): neither UK5099 nor CB839 were sufficient on their own to reduce T cell respiration; also recorded: neither UK5099 nor CB839 were sufficient to reduce T cell respiration alone
- glutamine uptake and glutamate, pyruvate, and lactate secretion (Th17 cells [4]): reduced upon GLS inhibition
- Myc protein (Th17 cells [5]; Th17): modestly increased Myc in Th1 but not Th17 cells
- proliferation (Th17 cells [5]; Th17): decreased cytokine production and proliferation only from Th17 cells
- H3K27 tri-methylation, initially (Th17 cells [5]; Th17, Day 3): increased H3K27 tri-methylation
- proliferation (Th17 cells [5]; Th17, after three days in culture): impaired proliferation
- ROS (DCFDA) (Th17 cells [5]; Th17, day 5): ROS increased
- expression of KLRG1 and PD1 (Th17 cells [5]; Th17, day 5): decreased or unchanged
- global H3K27 trimethylation (Th17 cells [5]; Th17, day 5, normalized to total H3): increased
- phospho-S6 (Th17 cells [5]; Th17, day 5, with IL2): decreased phosphor-S6; also recorded: decreased phospho-S6
- ROS (DCFDA) (Th17 cells [5]; Th17, day 5, listed as CD839): increased ROS
- global H3K4 trimethylation (Th17 cells [5]; Th17, day five): increased
- total rRNA levels per cell (Th17 cells [5]; Th17, day five): decreased
- Th17 cytokine production and differentiation (Th17 cells [5]; Th17 skewing, 5 days, CB839 vs vehicle): decreased cytokine production and proliferation only from Th17 cells
- induction of Treg (Foxp3) (Th17 cells [5]; under Th17 conditions): failed to do so
- Myc protein (Th1 cells; Th1): modestly increased Myc
- H3K27 tri-methylation, initially (Th1 cells; Th1, Day 3): increased H3K27 tri-methylation
- proliferation (Th1 cells; Th1, after three days in culture): impaired proliferation
- ROS (DCFDA) (Th1 cells; Th1, day 5): ROS increased
- expression of KLRG1 and PD1 (Th1 cells; Th1, day 5): increased expression of KLRG1 and PD1
- global H3K27 trimethylation (Th1 cells; Th1, day 5, normalized to total H3): decreased
- phospho-S6 (Th1 cells; Th1, day 5, with IL2): increased phosphor-S6; also recorded: increased phospho-S6
- ROS (DCFDA) (Th1 cells; Th1, day 5, listed as CD839): increased ROS
- global H3K4 trimethylation (Th1 cells; Th1, day five): decreased; also recorded: reduced
- proliferation (Th1 cells; Th1, day five): partially recovered proliferation by day five
- total rRNA levels per cell (Th1 cells; Th1, day five): increased
- H3K27 methylation in the absence of IL2 (Th1 cells; Th1 skewing conditions, no IL2): hypermethylated H3K27
- Th1 cytokine production and differentiation (Th1 cells; Th1 skewing, 5 days, CB839 vs vehicle): increased; also recorded: appeared to increase Th1 cytokine secretion
- induction of Treg (Foxp3) (Th1 cells; under Th1 conditions): failed to do so
